Experimental data as given in patent US20210255184A1, “Biosensor Device and Methods” (The New Zealand Institute for Plant and Food Research …, priority 2018, published 2021).
Where two headings read alike, the source gives them in different places.

Key:
DmOr22a/Orco = target: T1, DmOr22a/Orco (Drosophila melanogaster, UniProt P81909); settings: * estimated visually from graph, cited from earlier work
T1 sequence (P81909 1-397): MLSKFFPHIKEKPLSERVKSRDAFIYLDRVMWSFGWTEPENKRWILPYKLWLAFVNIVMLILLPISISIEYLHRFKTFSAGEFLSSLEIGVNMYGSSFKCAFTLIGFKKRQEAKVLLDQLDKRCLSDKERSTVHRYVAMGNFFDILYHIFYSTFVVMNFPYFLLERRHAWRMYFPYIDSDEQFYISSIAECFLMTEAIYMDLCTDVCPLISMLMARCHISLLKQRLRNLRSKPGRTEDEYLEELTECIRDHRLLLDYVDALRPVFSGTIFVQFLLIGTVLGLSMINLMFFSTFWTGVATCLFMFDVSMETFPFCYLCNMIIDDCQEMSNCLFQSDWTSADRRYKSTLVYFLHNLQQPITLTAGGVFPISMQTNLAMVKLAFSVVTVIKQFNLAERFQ
T1 sequence (Q9VNB5 1-486 partner): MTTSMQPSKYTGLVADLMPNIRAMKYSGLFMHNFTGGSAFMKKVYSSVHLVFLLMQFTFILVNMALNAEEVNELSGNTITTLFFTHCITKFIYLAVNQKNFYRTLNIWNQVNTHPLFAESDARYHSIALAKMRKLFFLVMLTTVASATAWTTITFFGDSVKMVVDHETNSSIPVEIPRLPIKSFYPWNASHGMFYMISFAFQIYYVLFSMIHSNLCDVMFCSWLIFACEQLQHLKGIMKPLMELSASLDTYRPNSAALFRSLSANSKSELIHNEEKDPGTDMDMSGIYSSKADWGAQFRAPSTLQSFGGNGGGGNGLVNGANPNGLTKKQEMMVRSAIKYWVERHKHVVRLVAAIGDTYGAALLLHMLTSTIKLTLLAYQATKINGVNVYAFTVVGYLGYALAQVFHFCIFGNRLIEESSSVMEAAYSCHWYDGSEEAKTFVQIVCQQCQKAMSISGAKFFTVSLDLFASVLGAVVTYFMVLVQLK

Or35a = target: T2, Or35a (Drosophila melanogaster, UniProt Q9V3Q2); experiment: EIS sensor, Or35a liposomes on gold electrode; format: biochemical; settings: EIS dose response
T2 construct: his-tag; made in house; host or cells: baculovirus-infected Sf9 cells
T2 sequence (Q9V3Q2 1-409): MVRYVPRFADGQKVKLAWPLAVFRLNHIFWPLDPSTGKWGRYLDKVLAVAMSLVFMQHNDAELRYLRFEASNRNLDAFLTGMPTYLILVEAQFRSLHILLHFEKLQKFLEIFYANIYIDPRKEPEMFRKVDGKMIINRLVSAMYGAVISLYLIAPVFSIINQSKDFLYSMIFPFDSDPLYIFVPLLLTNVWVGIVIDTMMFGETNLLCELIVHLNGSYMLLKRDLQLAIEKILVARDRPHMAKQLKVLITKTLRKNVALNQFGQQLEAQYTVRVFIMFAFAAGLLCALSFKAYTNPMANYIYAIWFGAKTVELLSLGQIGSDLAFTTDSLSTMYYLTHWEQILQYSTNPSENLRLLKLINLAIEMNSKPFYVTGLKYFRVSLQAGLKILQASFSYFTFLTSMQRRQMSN
Description: PBS (pH=7.4) was used as an electrolyte to conduct electrochemical measurements. PBS buffer was degassed for about 30 minutes prior to electrochemical measurements. Odorant solutions of concentration ranging from 1 aM to 1 μM were prepared by sequential dilution in PBS solution containing 1% DMSO. OR immobilized electrodes were incubated in relevant odorant solution for ˜30 minutes each and washed gently with PBS before EIS measurements.
EIS measurements were done in a 3 electrode cell containing Ag/AgCl (3 M NaCl, 0.209 V vs. SHE) reference electrode, coiled platinum wire as a counter electrode and the gold disk as a working electrode at a fixed voltage of −0.7 using PalmSens potentiostat. Degassed PBS was used as an electrolyte.
EIS measurements were performed on gold electrodes functionalised with OrX liposomes (either Or10a or Or22a), OrX/Orco liposomes, or empty liposomes prior to and after target ligand or control ligand incubation with increasing concentrations (1 aM to 100 μM). Dose response curves were obtained by defining sensor response as −(ΔRp/R^op) versus log[C(Ligand)]. FIG. 4a presents the EIS response in terms of Nyquist plot for the Or10a liposome functionalized sensors when exposed to a solution containing one of the known target ligands of Or10a, methyl salicylate, at various concentrations. […] The dose response curve (FIG. 4b) was obtained by plotting the change in polarization resistance −(ΔRp/R^op) versus log[conc(Ligand)], as the sensor response. Here, Rp is the polarization resistance after Or10a liposome-target interaction and R^op is the polarization resistance before Or10a liposome-target interaction.
Prior to use, 1 mg liposomes (500 μl at 2 mg/ml) were defrosted on ice and then destabilized by incubating with 0.2% CHAPS for 15 min at room temperature. […] All Or35a/Orco integrated liposomes samples were analysed by Western blot before being aliquoted and stored at −80° C. Integration of Or35a/Orco into liposomes was assessed by density gradient ultracentrifugation (DGU) using Accudenz (Accurate Chemical & Scientific Corporation, USA). […]

Compound | Sensitivity limit (given as Log) (DmOr22a/Orco; ref 43) | Sensitivity limit (given as Log) (DmOr22a/Orco; ref 44) | sensor response to control ligand (Or35a)
CCCCCC(=O)OC [methyl hexanoate] | Log = −7.5* | Log = −7* | 
COC(=O)c1ccccc1O [methyl salicylate] |  |  | negligible response
